# What was measured:
# 5-lipoxygenase = target: T1, 5-lipoxygenase (Rattus norvegicus, UniProt P12527); assay: Inhibition of 5-lipoxygenase, in vitro (5-HETE synthesis, RBL-1 100,000 x g supernatant); assay type: biochemical; conditions: RBL-1 homogenate supernatant
# T1 construct: supernatant fraction of Rat Basophilic Leukemia Cell Homogenate (RBL-1) serves as a 5-lipoxygenase enzyme source; endogenous in cells; host or cells: RBL-1 (rat basophilic leukemia) cell homogenate, 100,000 x g supernatant
# T1 sequence (P12527 1-673): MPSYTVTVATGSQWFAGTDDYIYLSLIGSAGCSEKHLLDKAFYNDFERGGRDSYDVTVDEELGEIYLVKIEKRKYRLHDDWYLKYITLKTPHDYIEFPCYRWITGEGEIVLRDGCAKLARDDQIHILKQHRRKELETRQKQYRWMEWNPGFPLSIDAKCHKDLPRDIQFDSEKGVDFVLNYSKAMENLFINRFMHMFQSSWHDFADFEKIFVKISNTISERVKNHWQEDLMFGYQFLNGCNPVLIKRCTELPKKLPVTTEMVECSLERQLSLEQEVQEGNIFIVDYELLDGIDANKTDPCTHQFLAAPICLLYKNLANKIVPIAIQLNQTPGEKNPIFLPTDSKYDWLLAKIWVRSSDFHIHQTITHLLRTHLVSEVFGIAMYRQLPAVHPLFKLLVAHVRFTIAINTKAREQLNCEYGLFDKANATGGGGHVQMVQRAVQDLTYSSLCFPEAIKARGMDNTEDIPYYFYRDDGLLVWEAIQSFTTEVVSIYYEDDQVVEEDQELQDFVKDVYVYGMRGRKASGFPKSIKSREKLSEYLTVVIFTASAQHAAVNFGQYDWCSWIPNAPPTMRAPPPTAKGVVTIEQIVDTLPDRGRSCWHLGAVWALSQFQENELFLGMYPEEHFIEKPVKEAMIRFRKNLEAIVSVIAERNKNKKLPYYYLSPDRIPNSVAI
# Method: The compounds of the invention are evaluated with respect to 5-lipoxygenaseinhibition according to the following assay procedure.
# Inhibition of 5-lipoxygenase, in vitro: anti-inflammatory, anti-allergy activities.
# The 100,000 x g supernatant fraction of Rat Basophilic Leukemia Cell Homogenate (RBL-1) serves as a 5-lipoxygenase enzyme source. The enzyme is incubated with [1-^14 C)-arachidonic acid and Ca++ in the presence and absence of test compound. The product of 5-lipoxygenase, 5-hydroxyeicosatetraenoic acid (5-HETE), is separated by thin-layer chromatography and measured by radioactivity. A compound inhibiting 5-HETE synthesis by 30% or more is considered active at that concentration.
# [1] = tested on: FMLP-stimulated human neutrophils (superoxide generation); assay: Human neutrophil superoxide generation, FMLP-stimulated, cytochrome C reduction; assay type: cell-based; conditions: for inhibition at 50 µM / activation at 50 µM: Homo sapiens; for inhibition at 50 µM: inhibited at 50 μM, read-out: Effect on FMLP Induced Superoxide: inhibited (% < control); for Effect on FMLP Induced Superoxide: stimulated (% > control) / activation at 50 µM: % above control; for activation at 50 µM: stimulated at 50 μM, read-out: Effect on FMLP Induced Superoxide: stimulated (% > control)
# Method: The compounds of the invention are evaluated with respect to superoxide modulating activity according to the following assay procedure:
# Human neutrophil superoxide generation:
# Superoxide generation by formyl-methionyl-leucyl-phenylalanine (FMLP)-stimulated neutrophils was quantitated by the reduction of cytochrome C (Badwey, J. A., Curnutte, J. T. and Karnovsky, M. L., cis-Polyunsaturated fatty acids induce high levels of superoxide production by human neutrophils. J. Biol. Chem. 256: 12640-12643, 1981.) To 5 million neutrophils in 2.85 ml of Krebs-Ringer phosphate buffer, pH 7.2, 50 ul of inhibitor (in 10% DMSO/buffer), and 50 ul ferricytochrome C (5 mM, stock) were added and preincubated for 3 minutes at 37° C. Absorption measurements at 550 nm were recorded at start of preincubation. Fifty ul FMLP (6 μM, stock) was added to initiate reaction. A plateau was reached within 3 minutes and this reading - initial reading (before addition of FMLP) was used to calculate nanomoles of superoxide generated based on a molar extinction coefficient of 2.1×10^4 cm^-1 mole^-1.
# Isolation of human neutrophils:
# Human neutrophils were isolated from freshly drawn blood of healthy donors. Two ml of 5% dextran (MW 200,000-300,000) in saline was added to 10 ml aliquots of blood, mixed and placed upright for 45 min. at 37° C. Approx. 8-10 ml of the plasma-white cell suspension from the dextran sedimentation was layered on 3 ml of Ficol-paque in a 15 ml tube and centrifuged at 400 g for 30 min. The supernate, containing plasma and platelets, was discarded by aspiration, and the pellet, containing predominantly neutrophils, was resuspended in 1 ml saline. The suspension was transferred to a clean tube, and pooled with other aliquots of blood treated similarly. The pooled suspension was centrifuged at 350 g for 5 min. and supernate discarded. The pellet was resuspended in 5 ml of 0.05% NaCl with a plastic Pasteur pipette for 25 seconds to lyse contaminating red cells, then 5 ml of 1.75% NaCl added to regain isotonicity. The red cell lysing procedure was repeated, the cells suspended in appropriate buffer (depending on assay) and counted.
# [2] = versus histamine; cited from earlier work
Compound,IC50 (5-lipoxygenase) [nM],Effect on FMLP Induced Superoxide: stimulated (% > control) ([1]; stimulated at 1-50 μM) [%],other results
"CC(C)(C)c1cc(SCCSCC(=O)NCc2cccnc2)cc(C(C)(C)C)c1O [Example 15, 2-[[2-[[3,5-bis (1,1-dimethylethyl)-4-hydroxyphenyl]thio]ethyl]thio]-N-(3-pyridinylmethyl)acetamide]",130,–,"inhibition at 50 µM ([1]; Neutrophil, % below control): 13%; Effect on FMLP Induced Superoxide: stimulated (% > control) ([1]; stimulated at 1-10 μM): 38%"
"C[C@H](Sc1cc(C(C)(C)C)c(O)c(C(C)(C)C)c1)[C@@H](C)OCC(=O)O (relative stereo) [Formula IV, reference compound]",–,–,"Effect on superoxide generation, in words ([1]; FMLP-stimulated human neutrophils): inhibited both superoxide generation and 5-lipoxygenase; IC50 ([1]; Neutrophil, FMLP-stimulated human neutrophils, read-out: Effect on FMLP Induced Superoxide: inhibited superoxide generation, IC50): 11000 nM"
"CN(CCc1ccccn1)C(=O)CCSCCSc1cc(C(C)(C)C)c(O)c(C(C)(C)C)c1 [Example 16, 3-[[2-[[3,5-bis(1,1-dimethylethyl)-4-hydroxyphenyl]thio]ethyl]thio]-N-methyl-N-[2-(2-pyridinyl)ethyl]propanamide]",160,146,"inhibition at 50 µM ([1]; Neutrophil, % below control): 13%"
"C[C@H](Sc1cc(C(C)(C)C)c(O)c(C(C)(C)C)c1)[C@@H](C)SCC(=O)NCc1ccncc1 (relative stereo) [Example 17, (±)2S*-[[[2-[[3,5-bis(1,1-dimethylethyl)-4-hydroxyphenyl]thio]-1R*-methylpropyl]thio]-N-(4-pyridinylmethyl)acetamide]",200,60,–
"CC(C)(C)c1cc(SCCSCCC(=O)N2CCC(N3CCCCC3)CC2)cc(C(C)(C)C)c1O [Example 21, 1-[3-[[2-[[3,5-bis(1,1-dimethylethyl)-4-hydroxyphenyl]thio]ethyl]thio]-1-oxopropyl]-4-(1-piperidinyl)piperidine]",150,–,activation at 50 µM ([1]; Neutrophil): 46%
"C[C@H](Sc1cc(C(C)(C)C)c(O)c(C(C)(C)C)c1)[C@@H](C)OCC(=O)N(C)CCc1ccccn1 (relative stereo) [Example 14, (±)2S*-[2-[[3,5-bis(1,1-dimethylethyl)-4-hydroxyphenyl]thio]-1R*-methylpropoxy]-N-methyl-N-[2-(2-pyridinyl)ethyl]acetamide]",220,–,"Effect on FMLP Induced Superoxide: inhibited (% < control) ([1]; inhibited at 25-50 μM, % below control): 57%; Effect on FMLP Induced Superoxide: stimulated (% > control) ([1]; stimulated at 1-10 μM): 171%"
"CC(=O)c1ccc(N2CCN(C(=O)CS[C@H](C)[C@H](C)Sc3cc(C(C)(C)C)c(O)c(C(C)(C)C)c3)CC2)cc1 (relative stereo) [Example 22, (±) 1-(4-acetylphenyl)-4-[2-[[2S*-[[3,5-bis(1,1-dimethylethyl)-4-hydroxyphenyl]thio]-1R*-methylpropyl]thio]-1-oxoethyl]piperazine]",170,–,activation at 50 µM ([1]; Neutrophil): 17%
"CC(C)(C)c1cc(SCCSCC(=O)NCc2ccccn2)cc(C(C)(C)C)c1O [Example 13, 2-[[2-[3,5-bis(1,1-dimethylethyl)-4-hydroxyphenyl]thiolethyl]thio]-N-(2-pyridinylmethyl)acetamide]",160,171,–
CCCCC/C=C\C\C=C/C=C/C=C/[C@@H](SC[C@H](NC(=O)CC[C@H](N)C(=O)O)C(=O)NCC(=O)O)[C@@H](O)CCCC(=O)O [LTC4],–,–,potency in causing long lasting bronchoconstricting effects relative to histamine [2]: at least 100 times
"CN1CCN(C(=O)CSCCSc2cc(C(C)(C)C)c(O)c(C(C)(C)C)c2)CC1 [Example 20, 1-[2-[[2-[[3,5-bis(1,1-dimethyethyl)-4-hydroxypheny]thio]ethyl]thio]-1-oxoethyl]-4-methylpiperazine]",400,–,"inhibition at 50 µM ([1]; Neutrophil, % below control): 100%; Effect on FMLP Induced Superoxide: stimulated (% > control) ([1]; stimulated at 1-25 μM): 135%"
"C[C@H](Sc1cc(C(C)(C)C)c(O)c(C(C)(C)C)c1)[C@@H](C)OCC(=O)N1CCN(Cc2ccccc2)CC1 (relative stereo) [Example 19, (±)1-[2-[2S*-[[3,5-bis(1,1-dimethylethyl)-4-hydroxyphenyl]thio]-1R*-methylpropoxy]-1-oxoethyl]-4-(phenylmethyl)piperazine]",460,33,–

# From patent publication US5342838A, “Phenolic thioetheramides” (G. D. Searle & Co., priority 1993, dated 1994)
